Data on eight compounds can be found in US9809623B2, “α4β7 peptide monomer and dimer antagonists” (Protagonist Therapeutics, Inc., priority 2014, dated 2017).

Numbered stars: 1 amine (or outer) side, 2 acyl side, 3 side chain; on linkers, the order of the positions; unused ones are H or OH. Bridge positions count the residues as written; N and C are the ends. Square brackets hold non-standard residues; d marks the D form. Peptide text beside a SMILES is read from it. I, II: the chains in the order shown. Phe(4-COOH) = N[C@@H](Cc1ccc(C(=O)O)cc1)C(=O)O; Phe(2-CONH2) = NC(=O)c1ccccc1C[C@H](N)C(=O)O; Diglycolyl = O=C(COCC(=O)[*:2])[*:1]; NMeR = CN[C@@H](CCCNC(=N)N)C(=O)O; Tic = O=C(O)[C@@H]1Cc2ccccc2CN1; Pen = CC(C)(S)[C@H](N)C(=O)O; Dab = NCC[C@H](N)C(=O)O A value given as a limit tells only on which side of the number the result lay.

Chain of α4β7 (P13612 34-1032): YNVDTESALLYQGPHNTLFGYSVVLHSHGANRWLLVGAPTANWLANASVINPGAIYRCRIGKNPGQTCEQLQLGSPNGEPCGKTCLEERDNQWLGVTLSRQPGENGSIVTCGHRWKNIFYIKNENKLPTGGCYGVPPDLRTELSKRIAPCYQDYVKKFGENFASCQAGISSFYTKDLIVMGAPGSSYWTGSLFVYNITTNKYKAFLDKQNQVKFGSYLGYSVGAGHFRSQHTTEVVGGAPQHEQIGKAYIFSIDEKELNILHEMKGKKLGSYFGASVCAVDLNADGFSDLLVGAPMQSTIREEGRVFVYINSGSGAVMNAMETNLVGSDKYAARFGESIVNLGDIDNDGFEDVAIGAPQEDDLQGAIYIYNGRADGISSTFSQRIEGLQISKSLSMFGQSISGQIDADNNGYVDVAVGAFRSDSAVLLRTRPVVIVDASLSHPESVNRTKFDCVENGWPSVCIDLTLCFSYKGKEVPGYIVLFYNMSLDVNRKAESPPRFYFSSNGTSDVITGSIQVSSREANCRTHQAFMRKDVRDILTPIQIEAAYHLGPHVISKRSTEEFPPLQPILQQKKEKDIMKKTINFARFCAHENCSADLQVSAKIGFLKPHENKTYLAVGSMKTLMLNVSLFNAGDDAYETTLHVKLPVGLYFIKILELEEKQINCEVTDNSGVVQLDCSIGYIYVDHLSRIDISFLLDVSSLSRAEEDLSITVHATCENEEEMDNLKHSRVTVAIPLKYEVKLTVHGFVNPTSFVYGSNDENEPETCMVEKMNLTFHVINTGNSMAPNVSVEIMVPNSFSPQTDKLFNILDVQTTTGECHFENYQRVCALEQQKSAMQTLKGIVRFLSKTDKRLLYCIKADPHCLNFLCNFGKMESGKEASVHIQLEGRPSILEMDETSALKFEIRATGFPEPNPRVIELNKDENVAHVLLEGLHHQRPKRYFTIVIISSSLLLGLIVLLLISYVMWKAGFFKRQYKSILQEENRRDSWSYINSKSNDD
Chain of α4β7 (P26010 20-798): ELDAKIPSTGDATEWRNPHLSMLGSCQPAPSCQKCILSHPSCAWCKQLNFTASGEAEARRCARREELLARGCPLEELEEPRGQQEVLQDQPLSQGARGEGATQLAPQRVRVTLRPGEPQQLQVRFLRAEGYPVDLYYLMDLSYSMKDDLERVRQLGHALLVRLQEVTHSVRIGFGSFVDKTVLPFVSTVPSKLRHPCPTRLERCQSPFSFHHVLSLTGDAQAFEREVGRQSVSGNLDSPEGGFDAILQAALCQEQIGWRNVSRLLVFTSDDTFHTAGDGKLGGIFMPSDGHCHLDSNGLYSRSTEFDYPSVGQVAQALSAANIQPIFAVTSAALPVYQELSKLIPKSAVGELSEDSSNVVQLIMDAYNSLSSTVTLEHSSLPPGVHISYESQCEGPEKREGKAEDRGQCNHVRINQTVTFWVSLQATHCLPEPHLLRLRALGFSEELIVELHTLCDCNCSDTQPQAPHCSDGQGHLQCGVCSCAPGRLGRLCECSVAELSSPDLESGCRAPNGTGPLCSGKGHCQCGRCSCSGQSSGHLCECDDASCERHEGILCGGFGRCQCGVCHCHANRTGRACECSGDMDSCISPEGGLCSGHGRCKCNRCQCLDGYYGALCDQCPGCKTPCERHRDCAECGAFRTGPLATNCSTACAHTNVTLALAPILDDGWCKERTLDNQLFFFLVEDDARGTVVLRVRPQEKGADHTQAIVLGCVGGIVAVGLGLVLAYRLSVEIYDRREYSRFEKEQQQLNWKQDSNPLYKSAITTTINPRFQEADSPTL

The assay has as its target α4β7 (Homo sapiens, UniProt P13612+P26010). The assay is described as follows: α4β7-MAdCAM Cell Adhesion Assay (RPMI 8866 human cells). The class given is cell-based. Also on record: host or cells: RPMI 8866 human B lymphoblastoid cells. The settings on record: Table 3-B, Potency (α4β7); range classes; read-out: α4β7 cell (Hu) IC50. How it is done: RPMI 8866 human cells (Sigma #95041316) were cultured in RPMI 1640 HEPES medium (Invitrogen #22400-089) supplemented with 10% serum (Fetal Bovine Serum, Invitrogen #16140-071), 1 mM sodium pyruvate (Invitrogen #11360-070), 2 mM L-glutamine (Invitrogen #25030-081) and Penicillin-Streptomycin (Invitrogen #15140-122) at 100 units of penicillin and 100 μg of streptomycin per ml. The cells were washed two times in DMEM medium (ATCC #30-2002) supplemented with 0.1% BSA, 10 mM HEPES pH 7 and 1 mM MnCl2. The cells were re-suspended in supplemented DMEM medium at a density of 4×10^6 cells/ml.
A Nunc MaxiSorp plate was coated with rh MAdCAM-1/Fc Chimera (R&D #6065-MC) at 200 ng per well in 50 ul per well in 1×PBS and incubated at 4° C. overnight. The solution was then removed by shaking, blocked with 250 ul per well PBS containing 1% BSA, and incubated at 37° C. for 1 hr. The solution was removed by shaking. Peptides were diluted by serial dilution in a final volume of 50 ul per well (2× concentration). To each well, 50 ul of cells (200,000 cells) were added and the plate was incubated at 37° C., 5% CO2 for 30-45 min to allow cell adhesion. The wells were washed manually three times (100 ul per wash) with supplemented DMEM. After the final wash, 100 ul/well of supplemented DMEM and 10 ul/well of MTT reagent (ATTC cat#30-1010K) were added. The plate was incubated at 37° C., 5% CO2 for 2-3 hrs until a purple precipitate was visible. 100 ul of Detergent Reagent (ATTC cat#30-1010K) was added to each well. The plate was covered from the light, wrapped in Parafilm to prevent evaporation, and left overnight at room temperature in the dark. The plate was shaken for 5 min and the absorbance at 570 nm was measured. To calculate the dose response, the absorbance value of control wells not containing cells was subtracted from each test well.
Regarding `CC(=O)N[C@@H]1C(=O)N(C)[C@@H](CCCNC(=N)N)C(=O)N[C@@H](CO)C(=O)N[C@@H](CC(=O)O)C(=O)N[C@@H]([C@@H](C)O)C(=O)N[C@@H](CC(C)C)C(=O)N[C@H](C(=O)N[C@@H](Cc2c[nH]c3ccccc23)C(=O)N[C@H](Cc2ccc(O)cc2)C(=O)N[C@H](CCCCNC(=O)COCC(=O)NCCCC[C@@H](NC(=O)[C@@H](Cc2ccc(O)cc2)NC(=O)[C@H](Cc2c[nH]c3ccccc23)NC(=O)[C@H]2NC(=O)[C@H](CC(C)C)NC(=O)[C@H]([C@@H](C)O)NC(=O)[C@H](CC(=O)O)NC(=O)[C@H](CO)NC(=O)[C@H](CCCNC(=N)N)N(C)C(=O)[C@@H](NC(C)=O)C(C)(C)SSC2(C)C)C(N)=O)C(N)=O)C(C)(C)SSC1(C)C` [compound 92] (I: Ac-[Pen][NMeR]SDTL[Pen]W[dY][dK]-NH2 / II: Ac-[Pen][NMeR]SDTL[Pen]W[dY][dK]-NH2; disulfide I:1-I:7, II:1-II:7; linker I:10-II:10 via Diglycolyl), the IC50 was 50 to 100 nM.
For the compound `CC(=O)N[C@@H]1C(=O)N(C)[C@@H](CCCNC(=N)N)C(=O)N[C@@H](CO)C(=O)N[C@@H](CC(=O)O)C(=O)N[C@@H]([C@@H](C)O)C(=O)N[C@@H](CC(C)C)C(=O)N[C@H](C(=O)N2Cc3ccccc3C[C@H]2C(=O)N[C@H](CCC(=O)O)C(=O)N[C@H](CCCCNC(=O)COCC(=O)NCCCC[C@@H](NC(=O)[C@@H](CCC(=O)O)NC(=O)[C@@H]2Cc3ccccc3CN2C(=O)[C@@H]2CSSC(C)(C)[C@H](NC(C)=O)C(=O)N(C)[C@@H](CCCNC(=N)N)C(=O)N[C@@H](CO)C(=O)N[C@@H](CC(=O)O)C(=O)N[C@@H]([C@@H](C)O)C(=O)N[C@@H](CC(C)C)C(=O)N2)C(N)=O)C(N)=O)CSSC1(C)C` [compound 93] (I: Ac-[Pen][NMeR]SDTLC[Tic][dE][dK]-NH2 / II: Ac-[Pen][NMeR]SDTLC[Tic][dE][dK]-NH2; disulfide I:1-I:7, II:1-II:7; linker I:10-II:10 via Diglycolyl), the half-maximal inhibitory concentration (IC50) lay within 500 to 1000 nM.
Turning to `CC(=O)N[C@@H]1C(=O)N(C)[C@@H](CCCNC(=N)N)C(=O)N[C@@H](CO)C(=O)N[C@@H](CC(=O)O)C(=O)N[C@@H]([C@@H](C)O)C(=O)N[C@@H](CC(C)C)C(=O)N[C@H](C(=O)N[C@@H](Cc2c[nH]c3ccccc23)C(=O)N2CCC[C@H]2C(=O)N[C@H](CCCCNC(=O)COCC(=O)NCCCC[C@@H](NC(=O)[C@@H]2CCCN2C(=O)[C@H](Cc2c[nH]c3ccccc23)NC(=O)[C@H]2NC(=O)[C@H](CC(C)C)NC(=O)[C@H]([C@@H](C)O)NC(=O)[C@H](CC(=O)O)NC(=O)[C@H](CO)NC(=O)[C@H](CCCNC(=N)N)N(C)C(=O)[C@@H](NC(C)=O)C(C)(C)SSC2(C)C)C(N)=O)C(N)=O)C(C)(C)SSC1(C)C` [compound 94] (I: Ac-[Pen][NMeR]SDTL[Pen]WP[dK]-NH2 / II: Ac-[Pen][NMeR]SDTL[Pen]WP[dK]-NH2; disulfide I:1-I:7, II:1-II:7; linker I:10-II:10 via Diglycolyl), the IC50 was 100 to 500 nM.
As for `CC(=O)N[C@@H]1C(=O)N(C)[C@@H](CCCNC(=N)N)C(=O)N[C@@H](CO)C(=O)N[C@@H](CC(=O)O)C(=O)N[C@@H]([C@@H](C)O)C(=O)N[C@@H](CC(C)C)C(=O)N[C@H](C(=O)N[C@@H](Cc2c[nH]c3ccccc23)C(=O)N2CCC[C@H]2C(=O)N[C@@H](CCCCNC(=O)COCC(=O)NCCCC[C@H](NC(=O)[C@@H]2CCCN2C(=O)[C@H](Cc2c[nH]c3ccccc23)NC(=O)[C@H]2NC(=O)[C@H](CC(C)C)NC(=O)[C@H]([C@@H](C)O)NC(=O)[C@H](CC(=O)O)NC(=O)[C@H](CO)NC(=O)[C@H](CCCNC(=N)N)N(C)C(=O)[C@@H](NC(C)=O)C(C)(C)SSC2(C)C)C(N)=O)C(N)=O)C(C)(C)SSC1(C)C` [compound 95] (I: Ac-[Pen][NMeR]SDTL[Pen]WPK-NH2 / II: Ac-[Pen][NMeR]SDTL[Pen]WPK-NH2; disulfide I:1-I:7, II:1-II:7; linker I:10-II:10 via Diglycolyl), the IC50 lay within 100 to 500 nM.
On to `CC(=O)N[C@@H]1C(=O)N(C)[C@@H](CCCNC(=N)N)C(=O)N[C@@H](CO)C(=O)N[C@@H](CC(=O)O)C(=O)N[C@@H]([C@@H](C)O)C(=O)N[C@@H](CC(C)C)C(=O)N[C@H](C(=O)N[C@@H](Cc2c[nH]c3ccccc23)C(=O)N2CCC[C@@H]2C(=O)N[C@@H](CCCCNC(=O)COCC(=O)NCCCC[C@H](NC(=O)[C@H]2CCCN2C(=O)[C@H](Cc2c[nH]c3ccccc23)NC(=O)[C@H]2NC(=O)[C@H](CC(C)C)NC(=O)[C@H]([C@@H](C)O)NC(=O)[C@H](CC(=O)O)NC(=O)[C@H](CO)NC(=O)[C@H](CCCNC(=N)N)N(C)C(=O)[C@@H](NC(C)=O)C(C)(C)SSC2(C)C)C(N)=O)C(N)=O)C(C)(C)SSC1(C)C` [compound 96] (I: Ac-[Pen][NMeR]SDTL[Pen]W[dP]K-NH2 / II: Ac-[Pen][NMeR]SDTL[Pen]W[dP]K-NH2; disulfide I:1-I:7, II:1-II:7; linker I:10-II:10 via Diglycolyl), for which the IC50 lay within 50 to 100 nM.
Take `CC(=O)N[C@@H]1C(=O)N(C)[C@@H](CCCNC(=N)N)C(=O)N[C@@H](CO)C(=O)N[C@@H](CC(=O)O)C(=O)N[C@@H]([C@@H](C)O)C(=O)N[C@@H](CC(C)C)C(=O)N[C@H](C(=O)N[C@@H](Cc2c[nH]c3ccccc23)C(=O)N[C@@H](CCC(=O)O)C(=O)N[C@@H](CCNC(=O)COCC(=O)NCC[C@H](NC(=O)[C@H](CCC(=O)O)NC(=O)[C@H](Cc2c[nH]c3ccccc23)NC(=O)[C@H]2NC(=O)[C@H](CC(C)C)NC(=O)[C@H]([C@@H](C)O)NC(=O)[C@H](CC(=O)O)NC(=O)[C@H](CO)NC(=O)[C@H](CCCNC(=N)N)N(C)C(=O)[C@@H](NC(C)=O)C(C)(C)SSC2(C)C)C(N)=O)C(N)=O)C(C)(C)SSC1(C)C` [compound 97] (I: Ac-[Pen][NMeR]SDTL[Pen]WE[Dab]-NH2 / II: Ac-[Pen][NMeR]SDTL[Pen]WE[Dab]-NH2; disulfide I:1-I:7, II:1-II:7; linker I:10-II:10 via Diglycolyl): the IC50 was under 10 nM.
As to `CC(=O)N[C@@H]1C(=O)N(C)[C@@H](CCCNC(=N)N)C(=O)N[C@@H](CO)C(=O)N[C@@H](CC(=O)O)C(=O)N[C@@H]([C@@H](C)O)C(=O)N[C@@H](CC(C)C)C(=O)N[C@H](C(=O)N[C@@H](Cc2ccccc2C(N)=O)C(=O)N[C@H](CCC(=O)O)C(=O)N[C@H](CCCCNC(=O)COCC(=O)NCCCC[C@@H](NC(=O)[C@@H](CCC(=O)O)NC(=O)[C@H](Cc2ccccc2C(N)=O)NC(=O)[C@H]2NC(=O)[C@H](CC(C)C)NC(=O)[C@H]([C@@H](C)O)NC(=O)[C@H](CC(=O)O)NC(=O)[C@H](CO)NC(=O)[C@H](CCCNC(=N)N)N(C)C(=O)[C@@H](NC(C)=O)C(C)(C)SSC2(C)C)C(N)=O)C(N)=O)C(C)(C)SSC1(C)C` [compound 98] (I: Ac-[Pen][NMeR]SDTL[Pen][Phe(2-CONH2)][dE][dK]-NH2 / II: Ac-[Pen][NMeR]SDTL[Pen][Phe(2-CONH2)][dE][dK]-NH2; disulfide I:1-I:7, II:1-II:7; linker I:10-II:10 via Diglycolyl), the IC50 was in the range of 50 to 100 nM.
With `CC(=O)N[C@@H]1C(=O)N(C)[C@@H](CCCNC(=N)N)C(=O)N[C@@H](CO)C(=O)N[C@@H](CC(=O)O)C(=O)N[C@@H]([C@@H](C)O)C(=O)N[C@@H](CC(C)C)C(=O)N[C@H](C(=O)N[C@@H](Cc2ccc(C(=O)O)cc2)C(=O)N[C@H](CCC(=O)O)C(=O)N[C@H](CCCCNC(=O)COCC(=O)NCCCC[C@@H](NC(=O)[C@@H](CCC(=O)O)NC(=O)[C@H](Cc2ccc(C(=O)O)cc2)NC(=O)[C@H]2NC(=O)[C@H](CC(C)C)NC(=O)[C@H]([C@@H](C)O)NC(=O)[C@H](CC(=O)O)NC(=O)[C@H](CO)NC(=O)[C@H](CCCNC(=N)N)N(C)C(=O)[C@@H](NC(C)=O)C(C)(C)SSC2(C)C)C(N)=O)C(N)=O)C(C)(C)SSC1(C)C` [compound 100] (I: Ac-[Pen][NMeR]SDTL[Pen][Phe(4-COOH)][dE][dK]-NH2 / II: Ac-[Pen][NMeR]SDTL[Pen][Phe(4-COOH)][dE][dK]-NH2; disulfide I:1-I:7, II:1-II:7; linker I:10-II:10 via Diglycolyl) the figure was under 10 nM.

For orientation: IC50 means the concentration that gives 50% inhibition.
